What was measured:
Type in all cases: physicochemical
[1] = RP-HPLC lipophilicity (log k′) on C18 column; conditions: 30% methanol/70% aqueous 15 mM formic acid
Method: (§1) Retention times, tR, were measured on two columns: (i) a standard C18 column (Phenomenex Phenosphere-NEXT, 250 × 4.6 mm, 5 μm) and (ii) an IAM.PC.DD.2 column (Regis, 10 cm × […], 10 μm packing 300 Å pore size), prepared by covalently bonding cell-membrane-forming phospholipids to silica. On (i), a chromatogram was performed for each complex (0.25 mM) in a fixed eluent composition (30% methanol/70% aqueous 15 mM formic acid; flow rate 0.5 mL·min^−1) using a Waters HPLC-MS instrument (equipped with an Alliance 2695 separation module, a 2487 dual lambda absorbance detector, and a 3100 mass detector). The UV-vis detector was set at 210 nm. In (ii), the mobile phase consisted of 20 mM ammonium acetate buffer at pH 6.9 and acetonitrile flowing at 1 mL·min^−1. The samples were dissolved in the mobile phase in a concentration range of 50–100 μg·mL^−1. An HPLC Varian ProStar instrument equipped with a 410 autosampler, a PDA 335 LC detector, and Galaxie Chromatography Data System Version 1.9.302.952 was used.
(§2) The different tRs were used to calculate log k′, which is the logarithm of the retention factor k′ = (tR − t0)/t0, where t0 is the column dead time (i.e., the tR of KCl or citric acid used as the internal reference for (i) and (ii), respectively).
The lipophilicity of a compound is commonly described by the octanol-water partition coefficient, log Po/w, which can be defined as the ratio of the concentration of the compound between the organic (n-octanol) and the aqueous phase. However, other faster methods, such as RP-HPLC, have often been used to evaluate lipophilicity instead of the shake-flask method. […] Therefore, the retention times (tR) of the complexes were determined on a C18 column using a 70/30 (% v/v) water/MeOH mixture as an eluent, and the data were expressed as log k′ (k′ = (tR − t0)/t0, where t0 is the column dead time of the column). The trend of the measured log k' was 3 > 2 > cisplatin > 1, as expected based on the structure of the complexes, the acetato ligand being more lipophilic than the hydroxido one (Table 1).

[2] = Immobilized artificial membrane (IAM) chromatography, log KW; conditions: IAM column; log k′ extrapolated to fully aqueous mobile phase
Method: as §1, §2
In the case of IAM, the log KW values were calculated by an extrapolation method. Log k′ values were determined at a minimum of three different percentages of acetonitrile (ϕ) in the mobile phases (from 10 to 50%, v/v), and the intercept values of the linear relationships between log k′ and ϕ values were assumed as log KW [65, 66].
Immobilized artificial membrane (IAM) chromatography is a complementary technique for evaluating the interaction of a drug with the cellular membrane. In this technique, the stationary silica phase is covalently bonded to phospholipids, giving a material that is more similar to the cell membrane than the simpler aliphatic chains of the RP-HPLC columns. The log KW values (i.e., log k′ values extrapolated at fully aqueous mobile phase) show the same trend for the three Pt(IV) complexes (log KW = −0.64, −1.06, −0.96, and −0.83 for cisplatin, 1, 2, and 3, respectively) (Table 1).

[3] = Stability in cell culture medium (HPLC-MS); conditions: 72 h, 37°C, dark, RPMI 1640 + 10% FBS, 100 μM
Method: The stability in the solution of Complexes 1–3 (100 μM) was studied by aging the compounds for 72 h at 37°C in the dark in the same cell culture medium employed for the A2780 cell line (i.e., RPMI 1640 medium added with 10% fetal bovine serum, FBS). The area of the chromatographic peaks of the Pt complexes was monitored in HPLC-MS, using a 70 : 30 mixture of 15 mM aqueous HCOOH and CH3OH as the mobile phase (see Section 2.3, settings i), for further instrumental details). ESI mass spectra, recorded using cone and capillary voltages of +30 V (positive ion mode) and 2.70 kV, were used to confirm the identity of the species.

CC(=O)[O][Pt]([NH2])([NH2])([Cl])([Cl])[O]C(C)=O [Complex 3, (OC-6-33)-diamminedichloridodiacetatoplatinum(IV)]
Log k′ [1]: −0.84
Log KW [2]: −0.83
remaining intact, % of the original HPLC peak [3]: > 85%

CC(=O)[O][Pt]([OH])([Cl])[Cl].N.N [Complex 2, (OC-6-44)-acetatodiamminedichloridohydroxidoplatinum(IV)]
Log k′ [1]: −1.10
Log KW [2]: −0.96
partial hydrolysis [3]: approximately 40%

N.N.[OH][Pt]([OH])([Cl])[Cl] [Complex 1, (OC-6-33)-diamminedichloridodihydroxidoplatinum(IV)]
Log k′ [1]: −1.50
Log KW [2]: −1.06
remaining intact, % of the original HPLC peak [3]: > 95%

N.N.[Cl][Pt][Cl] [Cisplatin, (SP-4-2)-diamminedichloridoplatinum(II)]
Log KW [2]: −0.64

From PMC9822769, “The Strange Case: The Unsymmetric Cisplatin-Based Pt(IV) Prodrug [Pt(CH3COO)Cl2(NH3)2(OH)] Exhibits Higher Cytotoxic Activity with respect to Its Symmetric Congeners due to Carrier-Mediated Cellular Uptake” (Bioinorganic Chemistry and Applications, 2022)
